# Measurements taken from patent publication US12653896B2, “Targeted dendrimer conjugates” (Starpharma Pty Ltd, priority 2019, dated 2026).
# Key:
# Format in all cases: cell-based, human
# MDA-MB-231/HER2 cells = assay: In vitro association study (flow cytometry, Cy5), MDA-MB-231/HER2; details: MDA-MB-231/HER2, 3.33 nM
# Procedure: (§1) MDA-MB-231, MDA-MB-231/HER2 (HER2 knock in) (as described above), or SKOV-3 cells were seeded in a 24-well plate (1×10^5 cells per well) in 500 μL of appropriate growth media with the addition of 10% (v/v) fetal bovine serum (FBS) and incubated with compound 36 or 41 at 3.33 nM, […] atmosphere. After incubation, non-binding/non-associating particles were removed from adherent cells by gently washing with DPBS three times (300 μL/well). Cells were removed from plates by treatment with TrypLE™ Express Enzyme (1×), no phenol red (150 μL/well) for 5-10 min at room temperature. The plates were then placed on ice. Cellular binding and association of sample were then determined through flow cytometry by the acquisition of the signal from Cy5.
# MDA-MB-231 cells [1] = assay: Confocal cellular uptake, MDA-MB-231; details: MDA-MB-231, 3.33 nM, 24 h
# Procedure: MDA-MB-231, MDA-MB-231/HER2 and SKOV-3 cells were plated at 1.0×10^4 cells per well into μ-slide 8 well chambered coverslip (ibidi) and allowed to adhere overnight at 37° C., 5% CO2. compounds 36 and 41 (3.33 nM) were then added and allowed to incubate for 1, 3, 6 and 24 hrs. The cells were washed and then fixed with 1% paraformaldehyde for 20 min at room temperature. The cell membrane was stained with Alexa Fluor 488-wheat germ agglutinin (AF488-WGA, 5 μg mL^−1) in DPBS at room temperature for 10 min. The cell nuclei were counterstained with 4′,6-diamidino-2-phenylindole (DAPI, 2 μg mL^−1) in DPBS at room temperature for 10 min. Fluorescence images and optical sections were collected using a confocal microscope (Leica SP8). Images were processed with Fiji (Image J 1.52n).
# MDA-MB-231 cells [2] = assay: In vitro association study (flow cytometry, Cy5), MDA-MB-231; details: MDA-MB-231, 3.33 nM, in words
# Procedure: as §1
# SKOV-3 cells = assay: In vitro association study (flow cytometry, Cy5), SKOV-3; details: SKOV-3, 3.33 nM
# Procedure: MDA-MB-231, MDA-MB-231/HER2 (HER2 knock in) (as described above), or SKOV-3 cells were seeded in a 24-well plate (1×10^5 cells per well) in 500 μL of appropriate growth media with the addition of 10% (v/v) fetal bovine serum (FBS) and incubated with compound 36 or 41 at 3.33 nM, with incubation time varied from 1 to 24 h at 37° C. in a 5% CO2 humidified atmosphere. After incubation, non-binding/non-associating particles were removed from adherent cells by gently washing with DPBS three times (300 μL/well). Cells were removed from plates by treatment with TrypLE™ Express Enzyme (1×), no phenol red (150 μL/well) for 5-10 min at room temperature. The plates were then placed on ice. Cellular binding and association of sample were then determined through flow cytometry by the acquisition of the signal from Cy5.
substance,measurement,setting,value
(MeTzPh)PEG4CO-NHPEG24CO—[N(PN)2][Lys]8[((α-NH-Cy5)1-4(α-NH-Glu-Val-Cit-PAB-MMAE)4-7)(ε-NH-COPEG1100)8] [Compound 36],Mean fluorescence intensity,"MDA-MB-231/HER2 cells; 24 h, 37° C.",16.05±1.89
same,binding over 24 h,MDA-MB-231/HER2 cells; in words,minimal binding
same,association with cells (confocal),MDA-MB-231 cells [1],little
same,binding over 24 h,MDA-MB-231 cells [2],minimal binding
same,Mean fluorescence intensity,"SKOV-3 cells; 24 h, 37° C.",16.4±6.86
same,binding over 24 h,SKOV-3 cells; in words,minimal binding
